We go through 15 compounds from patent US20210198277A1, “AMINE-SUBSTITUTED ARYL OR HETEROARYL COMPOUNDS” (Epizyme, Inc., priority 2016, published 2021).

In this test the target is T1, EHMT1 (Homo sapiens, UniProt Q9H9B1).
T1 sequence (Q9H9B1 1-1298): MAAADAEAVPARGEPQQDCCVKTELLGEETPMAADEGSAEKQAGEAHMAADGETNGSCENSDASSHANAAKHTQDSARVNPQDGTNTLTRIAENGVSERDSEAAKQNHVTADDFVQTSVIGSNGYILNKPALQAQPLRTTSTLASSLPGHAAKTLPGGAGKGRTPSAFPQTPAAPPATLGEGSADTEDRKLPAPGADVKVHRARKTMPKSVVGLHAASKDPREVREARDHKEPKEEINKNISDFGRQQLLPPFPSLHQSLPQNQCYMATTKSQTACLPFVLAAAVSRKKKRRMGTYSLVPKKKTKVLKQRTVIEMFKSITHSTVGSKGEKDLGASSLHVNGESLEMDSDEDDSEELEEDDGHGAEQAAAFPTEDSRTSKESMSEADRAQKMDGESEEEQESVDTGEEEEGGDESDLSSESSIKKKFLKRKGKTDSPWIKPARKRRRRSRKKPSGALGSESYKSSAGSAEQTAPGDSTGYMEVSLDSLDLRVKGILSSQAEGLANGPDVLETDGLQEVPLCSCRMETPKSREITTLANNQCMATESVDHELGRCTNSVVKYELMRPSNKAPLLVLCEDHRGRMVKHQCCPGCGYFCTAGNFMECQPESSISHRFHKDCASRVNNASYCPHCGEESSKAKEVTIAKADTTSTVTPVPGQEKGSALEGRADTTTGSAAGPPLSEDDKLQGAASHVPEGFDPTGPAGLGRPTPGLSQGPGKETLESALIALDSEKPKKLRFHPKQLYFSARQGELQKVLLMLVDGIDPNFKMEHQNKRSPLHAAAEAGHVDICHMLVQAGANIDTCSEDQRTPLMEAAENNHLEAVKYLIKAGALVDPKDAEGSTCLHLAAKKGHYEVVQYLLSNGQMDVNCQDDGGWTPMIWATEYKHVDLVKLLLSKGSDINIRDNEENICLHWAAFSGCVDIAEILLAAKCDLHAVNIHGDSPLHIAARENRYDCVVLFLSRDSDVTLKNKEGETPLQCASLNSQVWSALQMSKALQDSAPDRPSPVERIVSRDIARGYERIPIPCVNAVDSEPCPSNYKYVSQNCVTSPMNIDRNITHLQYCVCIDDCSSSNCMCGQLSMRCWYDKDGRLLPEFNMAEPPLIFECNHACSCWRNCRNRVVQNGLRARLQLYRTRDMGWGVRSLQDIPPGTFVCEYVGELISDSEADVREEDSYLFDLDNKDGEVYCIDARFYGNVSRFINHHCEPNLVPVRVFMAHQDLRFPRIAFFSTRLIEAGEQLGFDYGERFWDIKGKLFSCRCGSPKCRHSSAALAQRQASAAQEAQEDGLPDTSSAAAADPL
Kind of test: EHMT1 enzyme assay on peptide substrate (EHMT1 PEP). Format: biochemical. Conditions: Table III; read-out: EHMT1 PEP (IC50 μM).

A word on the IC50: it is the concentration that inhibits the measured activity by half.

The structures appear in SMILES notation. Where only a bound is given, the exact number is not on record here.

Take `CNc1cc(C)nc(Nc2ccc(OC)c(O[C@H]3C[C@H](N(C)C)C3)c2)n1` (single isomer, unassigned) [Compound 329, N^2-(3-((1r,3r)-3-(dimethylamino)cyclobutoxy)-4-methoxyphenyl)-N^4,6-dimethylpyrimidine-2,4-diamine]: the IC50 fell in the range of 1 to 10 µM. Regarding `COc1ccc(Nc2ccc3cnn(C)c3n2)cc1OCCCN1CCCC1` [Compound 257, N-(4-methoxy-3-(3-(pyrrolidin-1-yl)propoxy)phenyl)-1-methyl-1H-pyrazolo[3,4-b]pyridin-6-amine], the IC50 was over 10 µM. Then `COc1ccc(Nc2cc3c(cn2)ncn3C)cc1OCCCN1CCCC1` [Compound 258, N-(4-methoxy-3-(3-(pyrrolidin-1-yl)propoxy)phenyl)-1-methyl-1H-imidazo[4,5-c]pyridin-6-amine], with over 10 µM. Then `COc1ccc(Nc2nccc(NCC3CCOCC3)n2)cc1OC1CCC2(CC1)CCN(C)C2` (stereo not drawn) [Compound 259, N^2-(4-methoxy-3-((2-methyl-2-azaspiro[4.5]decan-8-yl)oxy)phenyl)-N^4-((tetrahydro-2H-pyran-4-yl)methyl)pyrimidine-2,4-diamine], with over 10 µM; and `COc1ccc(Nc2nccc(NCC3CCOCC3)n2)cc1OC1CCC2(CC1)CN(C)C2` [Compound 260, N^2-(4-methoxy-3-((2-methyl-2-azaspiro[3.5]nonan-7-yl)oxy)phenyl)-N^4-((tetrahydro-2H-pyran-4-yl)methyl)pyrimidine-2,4-diamine], with over 10 µM; and `CNc1cnnc(Nc2cc(OCCCN3CCCC3)c(OC)cn2)c1` [Compound 322, N^3-(5-methoxy-4-(3-(pyrrolidin-1-yl)propoxy)pyridin-2-yl)-N^5-methylpyridazine-3,5-diamine], with under 0.1 µM. Take `CNc1cc(Nc2cc(OCCCN3CCCC3)c(OC)cn2)cnn1` [Compound 323, N^5-(5-methoxy-4-(3-(pyrrolidin-1-yl)propoxy)pyridin-2-yl)-N^3-methylpyridazine-3,5-diamine]: the IC50 is over 10 µM. Then `CNc1cc(Nc2cc(OCCCN3CCCC3)c(OC)cn2)ncn1` [Compound 324, N^4-(5-methoxy-4-(3-(pyrrolidin-1-yl)propoxy)pyridin-2-yl)-N^6-methylpyrimidine-4,6-diamine], with 1 to 10 µM. Consider `CNc1cc(Nc2cc(OCCCN3CCCC3)c(OC)cn2)nc(C)n1` [Compound 325, N^4-(5-methoxy-4-(3-(pyrrolidin-1-yl)propoxy)pyridin-2-yl)-N^6,2-dimethylpyrimidine-4,6-diamine], for which the IC50 fell in the range of 1 to 10 µM. In the case of `COc1cnc(Nc2nc(C)nc3[nH]ccc23)cc1OCCCN1CCCC1` [Compound 326, N-(5-methoxy-4-(3-(pyrrolidin-1-yl)propoxy)pyridin-2-yl)-2-methyl-7H-pyrrolo[2,3-d]pyrimidin-4-amine] it was 0.1 to 1 µM; in that of `CNc1nc(Nc2ccc(OC)c(OCCCN3CCCC3)c2)nc2c1CCC2` [Compound 328, N^2-(4-methoxy-3-(3-(pyrrolidin-1-yl)propoxy)phenyl)-N^4-methyl-6,7-dihydro-5H-cyclopenta[d]pyrimidine-2,4-diamine], 0.1 to 1 µM. In the case of `CNc1cc(C)nc(Nc2ccc(OC)c(OC[C@H]3C[C@H](N(C)C)C3)c2)n1` [Compound 330] it was 1 to 10 µM; in that of `CNc1cc(C)nc(Nc2ccc(OC)c(O[C@H]3C[C@H](CN(C)C)C3)c2)n1` [Compound 331, N^2-(3-((1r,3r)-3-((dimethylamino)methyl)cyclobutoxy)-4-methoxyphenyl)-N^4,6-dimethylpyrimidine-2,4-diamine], over 10 µM.

On to `CNc1cc(C)nc(Nc2cnc(OC)c(OCCCN3CCCC3)c2)n1` [Compound 332, N^2-(6-methoxy-5-(3-(pyrrolidin-1-yl)propoxy)pyridin-3-yl)-N^4,6-dimethylpyrimidine-2,4-diamine], for which the IC50 is under 0.1 µM. In the case of `CCn1nc(Nc2nccc3[nH]ccc23)cc1COCCN1CCCC1` [Compound 333] it was 1 to 10 µM.
